Among the data in ChEMBL document CHEMBL1667849, “Identification of small molecular inhibitors for Ero1p by structure-based virtual screening” (Bioorg Med Chem Lett, 2011) are IC50 values, retold here.

Experiment [1] can be described thus: Inhibition of yeast Ero1p by fluorescence assay. Also on record: species or system Saccharomyces cerevisiae.
The target in experiment [2] is T1, ERO1-like protein alpha (Homo sapiens, UniProt Q96HE7).
T1 sequence (Q96HE7 whole entry): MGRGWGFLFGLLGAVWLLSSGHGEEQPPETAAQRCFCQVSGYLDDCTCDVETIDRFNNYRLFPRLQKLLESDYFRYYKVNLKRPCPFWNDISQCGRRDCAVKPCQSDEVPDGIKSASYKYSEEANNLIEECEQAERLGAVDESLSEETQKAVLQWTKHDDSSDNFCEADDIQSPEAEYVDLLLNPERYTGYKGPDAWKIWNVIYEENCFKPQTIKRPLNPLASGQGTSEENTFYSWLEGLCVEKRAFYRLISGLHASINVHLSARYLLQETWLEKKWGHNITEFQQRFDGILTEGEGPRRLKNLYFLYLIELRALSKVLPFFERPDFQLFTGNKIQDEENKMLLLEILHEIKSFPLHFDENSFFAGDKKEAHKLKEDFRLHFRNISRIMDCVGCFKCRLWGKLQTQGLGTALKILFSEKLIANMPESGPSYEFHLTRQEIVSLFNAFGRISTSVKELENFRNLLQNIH
Briefly: Inhibition of human Ero1-Lalpha.

Structures are written as SMILES.

With `O=C(Cn1cnc([N+](=O)[O-])c1[N+](=O)[O-])Nc1cc(Oc2ccccc2)cc([N+](=O)[O-])c1`, the results for the IC50 in experiment [1] and in experiment [2] were greater than 300 µM and 10 µM, respectively.
For `O=C1NC(=O)N(c2ccc(Cl)cc2)C(=O)/C1=C/c1ccc(O)c(O)c1`, the half-inhibitory concentration (IC50) in experiment [2] was determined as 11 µM.
On the same count and under the same terms, the result for `O=C1NC(=O)N(c2ccc(Cl)cc2)C(=O)/C1=C/Nc1cccc(O)c1` reads 80 µM.
Turning to `COc1ccc(/C=C2/C(=O)N(c3ccc(Cl)cc3)N=C2C(F)(F)F)cc1OC`, the IC50 in experiment [1] turned out to be 73 µM; in experiment [2] it was 8 µM.
`COc1cc(Cl)cc(/C=C2\C(=O)NN(c3ccc(F)c(Cl)c3)C2=O)c1O` showed a concentration for half-maximal inhibition (IC50) in experiment [2] of 38 µM.
In the case of `COc1cc(/C=C2\C(=O)NN(c3ccc(Br)cc3)C2=O)cc(Br)c1OC(C)=O`, the values for the IC50 in experiment [1] and in experiment [2] were 31 µM and 3 µM, respectively.
Compound `COc1ccc(N2C(=O)NC(=O)/C(=C\c3ccc(OCCOc4cccc(OC)c4)c(OC)c3)C2=O)cc1` displayed an IC50 in experiment [2] of 24 µM.
In experiment [2], `CCOc1cc(/C=C2\C(=O)NC(=O)N(c3ccc(C)cc3)C2=O)ccc1OCCOc1cccc2ccccc12` showed an IC50 of 17 µM.
Turning to `O=C(Nc1sc(-c2ccccc2)cc1C(=O)O)c1ccc(Br)cc1`, in experiment [2], half-maximal inhibition (IC50) was put at 67 µM.
As for `O=C(N/N=C1\C(=O)N(Cc2cccc([N+](=O)[O-])c2)c2ccccc21)c1cc2ccccc2cc1O`, the IC50 in experiment [2] was 108 µM.
As for `O=C(Nc1cc2c(cc1C(=O)O)C(=O)c1ccccc1C2=O)c1ccc([N+](=O)[O-])cc1`, the IC50 in experiment [2] is 37 µM.
With `COc1cc(/C=C2/N=C(c3ccc4ccccc4c3)OC2=O)ccc1OC(C)=O`, the midpoint of inhibition in experiment [2], the IC50, lay at 54 µM.

The term IC50 denotes the concentration that gives 50% inhibition. Read a low IC50 as greater potency in that assay.
